In general, IC50 refers to the concentration that inhibits the measured activity by half. Lower therefore signals higher potency.

Structures can show the parent of a compound that is named as a salt.

The target of the first assay is GABAa receptor. As to the kind of experiment: GABAa receptor binding assay ([3H]-RO15-1788 [3H-Flumanzenil] displacement, rat cortical tissue). The conditions noted are these: 0.5 nM 3H-RO15-1788, rat cortical tissue, 30 min at 4° C. The protocol:
The pharmaceutical utility of compounds of this invention are indicated by the following assay for GABAa receptor activity.
Assays are carried out as described in Thomas and Tallman (J. Bio. Chem. 156: 9838-9842, J. Neurosci. 3:433-440, 1983). Rat cortical tissue is dissected and homogenized in 25 volumes (w/v) of 0.05 M Tris HCl buffer (pH 7.4 at 4° C.). The tissue homogenate is centrifuged in the cold (4°) at 20,000×g for 20'. The supernatant is decanted and the pellet is rehomogenized in the same volume of buffer and again centrifuged at 20,000×g. The supernatant is decanted and the pellet is frozen at -20° C. overnight. The pellet is then thawed and rehomogenized in 25 volume (original wt/vol) of buffer and the procedure is carried out twice. The pellet is finally resuspended in 50 volumes (w/vol of 0.05 M Tris HCl buffer (pH 7.4 at […]).
Incubations contain 100 μl of tissue homogenate, 100 μl of radioligand 0.5 nM (^3 H-RO15-1788 [^3 H-Flumanzenil] specific activity 80 Ci/mmol), drug or blocker and buffer to a total volume of 500 μl. Incubations are carried for 30 min at 4° C. then are rapidly filtered through GFB filters to separate free and bound ligand. Filters are washed twice with fresh 0.05 M tris HCl buffer (pH 7.4 at 4° C.) and counted in a liquid scintillation counter. 1.0 μM diazepam is added to some tubes to determine nonspecific binding. Data are collected in triplicate determinations, averaged and % inhibition of total specific binding is calculated. Total Specific Binding=Total-Nonspecific. In some cases, the amounts of unlabeled drugs is varied and total displacement curves of binding are carried out. Data are converted to a form for the calculation of IC50 and Hill Coefficient (nH).
`c1ccc(-c2ncc3[nH]c4c(c3n2)CCCC4)cc1` [Compound 1, 2-Phenyl-6,7,8,9-tetrahydro-5H-indolo[3,2-d]-pyrimidine] displayed an IC50 of 100 nM.

In turn, `c1ccc(-c2ncc3[nH]c4c(c3n2)CCC4)cc1` [Compound 2, 2-Phenyl-cyclopent(g)-5H-pyrrolo[3,2-d]-pyrimidine] gave a half-maximal inhibitory concentration (IC50) of 110 nM.

Compound `c1ccc(-c2ncc3[nH]c4c(c3n2)CCCCC4)cc1` [Compound 3, 2-Phenyl-cyclohept(g)-pyrrolo[3,2-d]-5H-pyrimidine] yielded an IC50 of 1000 nM. This IC50 is about 9.1-fold higher than that of the compound before.

Turning to `c1ccc(COC2CCc3[nH]c4cnc(-c5ccccc5)nc4c3C2)cc1` (centres unmarked) [Compound 5, 2-Phenyl-8-benzyloxy-6,7,8,9-tetrahydro-5H-indolo[3,2-d]-pyrimidine], the IC50 came to 100 nM.

`COc1ccc(-c2ncc3[nH]c4c(c3n2)CCCC4)cc1` [Compound 7, 2-(4-Methoxyphenyl)-6,7,8,9-tetrahydro-5H-indolo[3,2-d]-pyrimidine] had an IC50 of 39 nM.

In the case of `COc1ccc(-c2ncc3[nH]c4c(c3n2)CCC4)cc1` [Compound 9, 2-(4-Methoxyphenyl)-cyclopent(g)-5H-pyrrolo[3,2-d]-pyrimidine], the IC50 amounted to 18 nM. Against the preceding compound, the IC50 is about 2.2-fold lower.

Turning to `c1csc(-c2ncc3[nH]c4c(c3n2)CCCC4)c1` [Compound 10, 2-(2-Thienyl)-6,7,8,9-tetrahydro-5H-indolo[3,2-d]-pyrimidine], the IC50 was found to be 9 nM.

For `CN1C(=O)CCC12CCc1[nH]c3cnc(-c4ccccc4)nc3c1C2` (centres unmarked) [Compound 11, 1-Methyl-2-phenyl-5,6,7,9-tetrahydro-spiro[indolo[3,2-d]-pyrimidine-2',8-pyrrolidin-5'-one]], the IC50 came to 50 nM.

With `c1ccc(-c2ncc3[nH]c4c(c3n2)CC2(CC4)OCCO2)cc1` [Compound 12, 2'-Phenyl-5',6',7',9'-tetrahydro-spiro[(1,3)dioxolane-2,8'-indolo[3,2-d]-pyrimidine]], the IC50 came to 25 nM. This IC50 is about 2-fold lower than that of the compound before.

For `COc1ccc(-c2ncc3[nH]c4c(c3n2)CC2(CCCO2)CC4)cc1` (centres unmarked) [Compound 15, 2-(4-Methoxyphenyl)-4,5,5',6',7',9'-hexahydro-spiro[furan-2,8'(3H)-indolo[3,2-d]-pyrimidine]], the IC50 was determined as 50 nM.

Turning to `c1ccc(-c2ncc3[nH]c4c(c3n2)COCC4)cc1` [Compound 26, 2-Phenyl-5,6,7,9-tetrahydro-5H-pyrano[4,3-b]pyrimidino[4,5-d]-pyrrole], the IC50 was found to be 400 nM.

`c1ccc(CN2CCc3[nH]c4cnc(-c5ccccc5)nc4c3C2)cc1` [Compound 32, 8-Benzyl-2-phenyl-5,6,7,9-tetrahydro-5H-pyrido[4,3-b]-pyrimidino[4,5-d]-pyrrole monohydrochloride] showed an IC50 of 13 nM.

For a further assay, the system named is benzodiazepine binding site.
Test: not given
The conditions noted are these: cited from earlier work.
Consider `CN1CCc2cc3c(cc2C1C1OC(=O)c2c1ccc1c2OCO1)OCO3` (single isomer, unassigned; (+)) [(+) bicuculline], for which the “blockade of enhancement of benzodiazepine binding by GABA agonists” value is “blocked”.

With `CN1CCc2cc3c(cc2C1C1OC(=O)c2c1ccc1c2OCO1)OCO3` (single isomer, unassigned; (-)) [(-) bicuculline], the “blockade of enhancement of benzodiazepine binding by GABA agonists” value is listed as “much less active”.

These data come from US5216159A (priority 1991, dated 1993).
